Measurements reported in patent US11571454B2, “Anticancer peptides that synergistically enhance chemotherapeutic potency” (The Penn State Research Foundation, priority 2017, dated 2023).

Assays:
[1] = tested on: patient-derived tumor cell spheroids (EOC15, 17, 19); test: Ex vivo 3D tumor spheroid culture; assay type: cell-based, human
Protocol: EOC patient-derived cells were cultured in 1:1 MCDB-105: M199 supplemented with 10% FBS and 1% penicillin-streptomycin. EOC patient-derived cells were provided by Dr. Katherine M. Aird under an Institutional Review Board-approved protocol. EOC patient-derived cells were collected from patient ascites fluid after paracentesis procedures. Cells were routinely tested for mycoplasma as previously described. […] Spheroid length and width was calculated using ImageJ. Spheroid volume was calculated using the following equation […] Statistical Methods […] IC50 values are reported as mean values±standard deviation. […] Pore size frequency distribution was completed by ImageJ FIJI on 4 independent cells and n=30 pores from SEM images. […] Individual UV-Vis and CD spectra, as well as fluorescent confocal and TEM micrographs, shown are representative plots from three individual experiments. CD data is with a variance in ellipticity of 0.2 millidegrees at each wavelength. Relative fluorescence data calculated from fluorescent confocal images represents the average of 10 independent measurements±standard deviation. For spheroid volume analysis, a Kruskal-Wallis test and Dunn's multiple comparisons test was performed using GraphPad Prism 8.

[2] = tested on: NCI/ADR-RES cells; test: Combinatorial (checkerboard) cytotoxicity, NCI/ADR-RES; assay type: cell-based, human; details: for Combined FIC Score, NCl/ADR-RES: chemotherapeutic in combination with MAD1, FIC <1 additive, <0.5 synergistic; for drug potency (IC50) in NCI/ADR-RES on co-treatment with MAD1: in the presence of 20 μM MAD1, compared with OVCAR-3; for synergy with MAD1, NCI/ADR-RES: multidrug resistant line, combination with MAD1
Source text: (§1) For combinatorial cytotoxicity experiments, 96 well plates were set up in a checkerboard fashion such that peptide decreased in 1:10 concentration dilutions in one direction and chemotherapeutic decreased in 1:10 concentration dilutions in the orthogonal direction. 2×treatments were combined prior to cell administration for a final 1×concentration to prevent individual treatment effects.

[3] = tested on: OVCAR-3 cells; test: Combinatorial (checkerboard) cytotoxicity, OVCAR-3; assay type: cell-based, human; details: for Combined FIC Score, OVCAR-3: chemotherapeutic in combination with MAD1, FIC <1 additive, <0.5 synergistic; for synergy with MAD1, OVCAR-3: drug-refractory line, combination with MAD1
Source text: as §1

[4] = tested on: OVCAR-3 ovarian carcinoma cells; details: for IC50: 48 h
[5] = Liposome disruption (OD600), cancer membrane model; details: OD600 and visual flocculates
Protocol: (§2) Liposomes were prepared by extrusion techniques according to previous methods. Briefly, all liposomes were prepared in 2×concentration (5 mM). Healthy and cancer liposomal mimicking membranes were prepared with 72:23:[…] phosphatidylcholine (POPC):phosphatidylethanolamine (DOPE):phosphatidylserine (POPS) lipids, respectively. The lipids dissolved in chloroform were mixed in proper molar proportions before being evaporated under a stream of argon. The lipid film was then dried completely by lyophilization overnight. […] The extruded liposomes were then dialyzed in 3500 MWCO dialysis cassettes against water. Parallel optical density experiments were conducted measuring the absorbance at 600 nm (OD600) to track the kinetics and specificity of membrane disruption. Measurements were taken every 30 seconds for the first 10 min., followed by measurements every minute until 15 min.

[6] = tested on: non-cancerous cell lines HUVEC and NL20; test: MTT cytotoxicity, non-cancerous control cell lines; assay type: cell-based, human
Protocol: (§3) All cells were cultured using standard culture conditions at 37° C., 5% CO2, and 95% humidity. A549 (CCL-185), OVCAR-3 (HTB-161), T24 (HTB-4), and NCI/ADR-RES were cultured in RPMI-1640 supplemented with 10% v/v fetal bovine serum (FBS), 2 mM L-glutamine (L-Gln), 10,000 units penicillin/mL, 10 mg/mL streptomycin, and 25 μg/mL amphotericin B. HUVEC (PCS-100-010) cells were cultured in Vascular Cell Basal Media (PCS-100-030) supplemented with an Endothelial Cell Growth Kit-VEGF (PCS-100-041) and 10 μg/mL gentamycin in culture flasks coated with 0.1% gelatin by incubating at 37° C. for 15 min. NL20 (CRL-2503) cells were cultured in Ham's F12 supplemented with 1.5 g/L sodium bicarbonate, 2.7 g/L glucose, 2.0 mM L-glutamine, 0.1 mM nonessential amino acids, 0.005 mg/ml insulin, 10 ng/ml epidermal growth factor, 0.001 mg/ml transferrin, 500 ng/ml hydrocortisone and 4% fetal bovine serum, as advised by American Type Culture Collection (ATCC).
(§4) Viability was calculated by comparing to an untreated control.
(§5) All experiments were performed with n>6.

[7] = Liposome disruption (OD600), normal membrane model
Protocol: as §2

[8] = tested on: A549 (lung carcinoma) cells; test: MTT cytotoxicity assay, A549; assay type: cell-based, human; details: for IC50: 48 hours treatment, MTT, read-out: Cancerous (IC50, μM) A549
Protocol: as §3, §4, §5
(§6) Cell viability experiments were completed n>6 in two independent experiments and analyzed using GraphPad Prism 8 to fit curves and calculate IC50 values using inhibitor vs. normalized response non-linear regression model. IC50 values are reported as mean values±standard deviation. […] Pore size frequency distribution was completed by ImageJ FIJI on 4 independent cells and n=30 pores from SEM images. UV-Vis OD600 and CD spectra are means of 5 and 3 replicates, respectively and reported as mean±standard deviation. Individual UV-Vis and CD spectra, as well as fluorescent confocal and TEM micrographs, shown are representative plots from three individual experiments. CD data is with a variance in ellipticity of 0.2 millidegrees at each wavelength. Relative fluorescence data calculated from fluorescent confocal images represents the average of 10 independent measurements±standard deviation. For spheroid volume analysis, a Kruskal-Wallis test and Dunn's multiple comparisons test was performed using GraphPad Prism 8.

[9] = tested on: panel of human cancer cell lines (A549, OVCAR-3, NCI/ADR-RES, T24)
[10] = tested on: MS S. aureus; details: 24 hours, Gram Positive
[11] = tested on: E. coli; details: 24 hours, Gram Negative
[12] = tested on: T24 (urinary bladder transitional cell carcinoma) cells; details: 48 h
[13] = tested on: NCI/ADR-RES (drug-resistant ovarian carcinoma) cells; test: MTT cytotoxicity assay, NCI/ADR-RES; assay type: cell-based, human; details: for IC50: 48 hours treatment, MTT, read-out: Cancerous (IC50, μM) NCl/ADR-RES
Protocol: as §3, §4, §5, §6

[14] = tested on: human lung epithelium (NL20); details: 48 h
[15] = tested on: T24 (urinary bladder transitional cell carcinoma) cells; test: MTT cytotoxicity assay, T24; details: IC50-HUVEC/IC50-T24
[16] = tested on: P. aeruginosa; details: 24 hours, Gram Negative
[17] = tested on: polymicrobial panel (six bacterial lines); test: Antimicrobial activity against polymicrobial panel; assay type: cell-based; details: six bacterial lines
[18] = tested on: M. tuberculosis; details: 24 hours, Mycobacteria
[19] = tested on: B. subtilis (168); details: 24 hours, Gram Positive
[20] = tested on: MR S. aureus; details: 24 hours, Gram Positive
[21] = tested on: human umbilical vein endothelial cells (HUVEC); details: 48 h

Compound	Combined FIC Score, NCl/ADR-RES [2]	drug potency (IC50) in NCI/ADR-RES on co-treatment with MAD1 [2]	synergy with MAD1, NCI/ADR-RES [2]	Combined FIC Score, OVCAR-3 [3]	synergy with MAD1, OVCAR-3 [3]	IC50 [4] [µM]	IC50 [8] [µM]	MIC (μM) MS S. aureus [10] [µM]	MIC (μM) E. coli [11] [µM]	IC50 [12] [µM]	IC50 [13] [µM]	IC50 [14] [µM]	MIC (μM) P. aeruginosa [16] [µM]	antimicrobial activity against polymicrobial panel [17]	MIC (μM) M. tuberculosis [18] [µM]	MIC (μM) B. subtilis (168) [19] [µM]	MIC (μM) MR S. aureus [20] [µM]	IC50 [21] [µM]	further results
N.N.[Cl][Pt][Cl] [Cis, Cisplatin]	0.27	restored the potency	potently synergizes	0.31	potently synergizes	–	–	–	–	–	–	–	–	–	–	–	–	–	spheroid size, combination ([1]; 2 μM cisplatin combined with 4 μM MAD1, 48 hours): potent and synergistic anticancer effects; spheroid size, single agent ([1]; 2 μM cisplatin or 4 μM MAD1 alone, 48 hours): minimal reduction in size
COc1cccc2c1C(=O)c1c(O)c3c(c(O)c1C2=O)C[C@@](O)(C(=O)CO)C[C@@H]3O[C@H]1C[C@H](N)[C@H](O)[C@H](C)O1 [Dox, Doxorubicin]	0.37	restored the potency	potently synergizes	0.33	potently synergizes	–	–	–	–	–	–	–	–	–	–	–	–	–	–
CC(=O)O[C@H]1C(=O)[C@@]2(C)[C@H]([C@H](OC(=O)c3ccccc3)[C@]3(O)C[C@H](OC(=O)[C@H](O)[C@@H](NC(=O)c4ccccc4)c4ccccc4)C(C)=C1C3(C)C)[C@]1(OC(C)=O)CO[C@@H]1C[C@@H]2O [Ptx, Paclitaxel]	0.27	–	potently synergizes	–	–	–	–	–	–	–	–	–	–	–	–	–	–	–	–
H-LWKRWVGVWRKWL-NH2 [DAP1]	–	–	–	–	–	8.6	11.9	7	10	15.3	14	19	20	bactericidal activity	20	<0.6	5	19.5	Therapeutic Index OVCAR-3 ([4]; IC50-HUVEC/IC50-OVCAR-3): 2.3; disruption/lysis of cancer membrane liposomes [5]: does not completely lyse; toxicity towards non-cancerous control cell lines [6]: nearly equal toxicity; disruption/interaction with normal (healthy) membrane liposomes [7]: little interaction affinity; Therapeutic Index A549 ([8]; IC50-HUVEC/IC50-A549): 1.6; IC50 [9]: 8.6 to 15.3 µM; therapeutic indices across cell lines ([9]; relative to HUVEC controls): ≤ 2.3; Therapeutic Index NCl/ADR-RES ([13]; IC50-HUVEC/IC50-NCI/ADR-RES): 1.4; Therapeutic Index T24 [15]: 1.3
H-RWGKWFKKNSHLS-NH2 [DAP2]	–	–	–	–	–	> 100	> 100	>80	>80	> 100	> 100	> 100	>80	inactive	>80	>80	>80	> 100	Cancerous (IC50, μM) OVCAR-3 ([4]; 48 hours treatment, MTT): did not achieve an IC50; activity towards all four tumor cell lines tested ([9]; result in words): inactive
